Laboratory results: the NIST ThermoML archive (doi:10.1016/j.jct.2010.04.006)
Numbers after ± are expanded uncertainties.

Key:
[1] = Molar enthalpy of transition or fusion; details: Crystal; DSC
[2] = Crystal; DTA

Molar enthalpy of transition or fusion [1]: 4.48 ± 0.136 kcal/mol
Normal melting temperature [2]: 125.71 ± 0.5 °C
SMILES: O=C1Cc2ccccc2N1 [indolin-2-one]
